Laboratory results: publication PMC9770967, “Native holdup (nHU) to measure binding affinities from cell extracts” (Science Advances, 2022)
Like-named read-outs stand apart in the source and are kept apart here. *1 amine or outer side, *2 acyl side, *3 side chain or, on linkers, in order; H or OH if unused. Where a SMILES comes first, the peptide text is derived from it. The star is where a group is joined. X1 = O=C(CCCC[C@@H]1SC[C@@H]2NC(=O)N[C@@H]21)NCCCOCCOCCOCCCN*; Suc = O=C(CCC(=O)[*:2])[*:1]

Key:
[1] = target: endogenous full-length SCRIB (Homo sapiens, UniProt Q14160); assay: Single-point nHU-WB, 12 PBM peptide baits, Jurkat extract; assay type: binding
[2] = target: T1, endogenous full-length SNX27 (Homo sapiens, UniProt Q96L92); assay: as above; assay type: binding
T1 construct: Supernatant fractions were probed with specific antibodies against endogenous full-length PDZ domain–containing proteins SCRIB and SNX27; endogenous in cells; host or cells: Jurkat E6.1 total cell extract

SCRIB PDZ3 = settings: fragmentomic, isolated PDZ domain; cited from earlier work
Source text: (§1) Supplement sciadv.ade3828_table_s1.zip/sciadv.ade3828_table_s1.xlsx, sheet "nHU-WB_SP"

SCRIB PDZ1 = settings: fragmentomic, isolated PDZ domain; cited from earlier work
Source text: Supplement sciadv.ade3828_table_s1.zip/sciadv.ade3828_table_s1.xlsx, sheet "nHU-WB_SP" | column: Domain-motif fragmentomic affinities (ProfAff)

[3] = target: isolated PDZ domain of SNX27; settings: 10-mer PBM peptide vs isolated PDZ domain, holdup; cited from earlier work
SCRIB PDZ2 = settings: fragmentomic, isolated PDZ domain; cited from earlier work
Source text: as §1

Sequence of endogenous full-length SCRIB (Q14160 whole entry): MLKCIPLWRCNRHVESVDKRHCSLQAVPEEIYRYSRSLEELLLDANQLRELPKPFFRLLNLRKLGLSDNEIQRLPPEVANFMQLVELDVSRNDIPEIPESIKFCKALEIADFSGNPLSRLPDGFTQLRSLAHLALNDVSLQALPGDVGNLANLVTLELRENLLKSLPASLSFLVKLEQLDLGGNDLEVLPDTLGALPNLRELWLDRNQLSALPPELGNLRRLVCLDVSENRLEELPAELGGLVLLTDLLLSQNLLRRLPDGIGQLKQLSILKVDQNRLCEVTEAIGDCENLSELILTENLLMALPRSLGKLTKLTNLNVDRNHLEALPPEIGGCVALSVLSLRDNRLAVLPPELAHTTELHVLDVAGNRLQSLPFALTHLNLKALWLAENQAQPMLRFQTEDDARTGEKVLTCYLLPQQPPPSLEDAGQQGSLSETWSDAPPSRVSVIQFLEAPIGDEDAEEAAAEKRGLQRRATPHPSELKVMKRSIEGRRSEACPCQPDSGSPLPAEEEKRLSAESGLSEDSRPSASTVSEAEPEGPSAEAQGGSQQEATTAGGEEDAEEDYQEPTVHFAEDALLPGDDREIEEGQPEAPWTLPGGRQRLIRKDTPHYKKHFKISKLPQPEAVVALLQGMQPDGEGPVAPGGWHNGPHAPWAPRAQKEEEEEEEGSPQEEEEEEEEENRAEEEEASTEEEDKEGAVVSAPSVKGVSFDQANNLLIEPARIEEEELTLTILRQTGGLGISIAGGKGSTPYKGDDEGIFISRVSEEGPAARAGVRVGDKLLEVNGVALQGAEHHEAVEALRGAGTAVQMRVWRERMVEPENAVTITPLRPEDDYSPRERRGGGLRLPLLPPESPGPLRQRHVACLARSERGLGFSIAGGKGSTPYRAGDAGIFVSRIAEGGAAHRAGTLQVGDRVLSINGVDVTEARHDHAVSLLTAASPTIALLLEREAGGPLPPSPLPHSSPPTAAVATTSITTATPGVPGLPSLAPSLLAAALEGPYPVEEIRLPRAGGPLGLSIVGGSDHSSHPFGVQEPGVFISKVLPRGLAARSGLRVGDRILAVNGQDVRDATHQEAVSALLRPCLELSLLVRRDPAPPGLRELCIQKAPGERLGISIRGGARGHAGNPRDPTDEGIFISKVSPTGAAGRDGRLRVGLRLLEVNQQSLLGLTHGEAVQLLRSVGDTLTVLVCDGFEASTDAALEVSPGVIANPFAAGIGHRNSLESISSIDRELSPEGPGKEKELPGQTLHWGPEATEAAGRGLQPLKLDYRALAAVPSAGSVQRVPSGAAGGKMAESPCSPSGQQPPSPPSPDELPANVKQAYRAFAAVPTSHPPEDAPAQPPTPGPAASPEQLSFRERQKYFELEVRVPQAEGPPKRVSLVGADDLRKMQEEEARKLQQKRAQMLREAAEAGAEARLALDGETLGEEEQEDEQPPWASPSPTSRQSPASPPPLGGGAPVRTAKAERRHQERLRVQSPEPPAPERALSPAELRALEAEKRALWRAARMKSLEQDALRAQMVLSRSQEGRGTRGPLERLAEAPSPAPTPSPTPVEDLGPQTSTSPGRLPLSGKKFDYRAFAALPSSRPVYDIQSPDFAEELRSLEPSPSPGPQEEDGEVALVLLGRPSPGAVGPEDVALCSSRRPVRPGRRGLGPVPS

| Kd ([1]; apparent, Eq. 2, ~10 μM bait, Jurkat extract, mean of replicates with a value, read-out: av.pKapp (converted)) | Kd ([2]; apparent, Eq. 2, ~10 μM bait, Jurkat extract, mean of n = 3, read-out: av.pKapp (converted)) | SMILES | Kd [1] | pKd_PDZ3 (SCRIB PDZ3) | Kd [2] | pKd_PDZ1 (SCRIB PDZ1) | pKd (fragmentomic affinity) [3] | pKd_PDZ2 (SCRIB PDZ2) |
| --- | --- | --- | --- | --- | --- | --- | --- | --- |
| 1.17 µM | 1.51 µM | CC(C)[C@H](NC(=O)CN)C(=O)N[C@@H](CCC(=O)O)C(=O)NCC(=O)N[C@@H](CO)C(=O)N[C@@H](CC(=O)O)C(=O)N[C@H](C(=O)N[C@H](C(=O)N[C@@H](CCC(=O)O)C(=O)N[C@@H](C)C(=O)O)[C@@H](C)O)[C@@H](C)O [MAP4] (H-GVEGSDTTEA-OH) |  |  |  |  |  |  |
|  |  | CSCC[C@H](NC(=O)[C@@H](NC(=O)[C@H](CO)NC(=O)[C@H](CCC(=O)O)NC(=O)[C@H](CCCCN)NC(=O)[C@H](CCC(=O)O)NC(=O)[C@H](CO)NC(=O)[C@H](C)NC(=O)[C@@H](NC(=O)[C@@H](NC(=O)CCC(=O)NCCCOCCOCCOCCCNC(=O)CCCC[C@@H]1SC[C@@H]2NC(=O)N[C@@H]21)[C@@H](C)O)C(C)C)C(C)C)C(=O)O [SLC1A5] ({X1-Suc}-TVASEKESVM-OH; C-terminus assumed) | 112 µM | 3.97 | 8.91 µM | 5.20 | 5.29 |  |
|  |  | CC(C)C[C@H](NC(=O)[C@H](CO)NC(=O)[C@@H](NC(=O)[C@H](CCC(=O)O)NC(=O)[C@H](CC(C)C)NC(=O)[C@H](CO)NC(=O)[C@H](Cc1c[nH]cn1)NC(=O)[C@H](CC(C)C)NC(=O)[C@@H]1CCCN1C(=O)[C@H](CO)NC(=O)CCC(=O)NCCCOCCOCCOCCCNC(=O)CCCC[C@@H]1SC[C@@H]2NC(=O)N[C@@H]21)[C@@H](C)O)C(=O)O [ATP2B1] ({X1-Suc}-SPLHSLETSL-OH; C-terminus assumed) |  | 5.54 |  | 5.36 | 5.48 | 4.27 |
|  |  | CC(C)[C@H](NC(=O)[C@@H]1CCCN1C(=O)[C@H](CO)NC(=O)[C@H](CCC(=O)O)NC(=O)[C@H](CCC(=O)O)NC(=O)[C@H](CCC(=O)O)NC(=O)[C@H](CCCCN)NC(=O)[C@@H]1CCCN1C(=O)CNC(=O)CNC(=O)CCC(=O)NCCCOCCOCCOCCCNC(=O)CCCC[C@@H]1SC[C@@H]2NC(=O)N[C@@H]21)C(=O)O [SLC16A1] ({X1-Suc}-GGPKEEESPV-OH; C-terminus assumed) | 69.2 µM |  | 6.17 µM | 5.18 | 5.27 |  |
|  |  | CC(C)C[C@H](NC(=O)[C@H](CC(N)=O)NC(=O)[C@@H](NC(=O)[C@H](CCC(=O)O)NC(=O)[C@H](CC(=O)O)NC(=O)[C@H](Cc1c[nH]c2ccccc12)NC(=O)[C@H](C)NC(=O)[C@@H]1CCCN1C(=O)[C@H](CC(=O)O)NC(=O)[C@H](CC(N)=O)NC(=O)CCC(=O)NCCCOCCOCCOCCCNC(=O)CCCC[C@@H]1SC[C@@H]2NC(=O)N[C@@H]21)[C@@H](C)O)C(=O)O [ARHGEF7] ({X1-Suc}-NDPAWDETNL-OH; C-terminus assumed) | 1.35 µM | 5.08 | 1.51 µM | 5.50 | 5.66 | 4.68 |
|  |  | CC(C)C[C@H](NC(=O)[C@H](CO)NC(=O)[C@@H](NC(=O)[C@H](CCC(=O)O)NC(=O)[C@H](CCC(=O)O)NC(=O)[C@H](CS)NC(=O)[C@@H](NC(=O)[C@H](CCCNC(=N)N)NC(=O)[C@@H](NC(=O)[C@@H]1CCCN1C(=O)CCC(=O)NCCCOCCOCCOCCCNC(=O)CCCC[C@@H]1SC[C@@H]2NC(=O)N[C@@H]21)C(C)C)C(C)C)[C@@H](C)O)C(=O)O [OTULIN] ({X1-Suc}-PVRVCEETSL-OH; C-terminus assumed) |  | 5.64 |  | 5.44 | 5.58 | 4.70 |
|  |  | CC(C)C[C@H](NC(=O)[C@@H]1CCCN1C(=O)[C@H](Cc1c[nH]cn1)NC(=O)[C@H](Cc1ccccc1)NC(=O)CCC(=O)NCCCOCCOCCOCCCNC(=O)CCCC[C@@H]1SC[C@@H]2NC(=O)N[C@@H]21)C(=O)NCC(=O)N[C@@H](C)C(=O)N[C@@H](CC(=O)O)C(=O)N[C@@H](CO)C(=O)N[C@@H](CCC(N)=O)C(=O)N[C@H](C(=O)O)C(C)C [SLC2A1] ({X1-Suc}-FHPLGADSQV-OH; C-terminus assumed) | 69.2 µM | 3.58 | 25.1 µM | 4.02 | 4.05 |  |
